Tested on: 855422-203-R-J1-PDC complex spheroid viability
Test: Anticancer human tumor 855422-203-R-J1-PDC patient-derived bladder carcinoma cell line growth inhibition [POLQ]
Details: for IC50: curve of first compound; for viability, T/C: stronger effect = lower value; active = viability on the fitted dose curve at most 10% of control; inactive = the rest
In short: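 Growth inhibition in 3D: complex spheroids (tumor PDC, HUVEC, MSC) treated with POLQ inhibitor combinations; where Cmax unknown, highest tested concentration 10 microM, except SN-38 at 1 microM.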

[1] = second compound 0.0316 µM, first compound 0.0316 µM
[2] = second compound 0.0316 µM, first compound 0.1 µM
[3] = second compound 0.0316 µM, first compound 0.316 µM
[4] = second compound 0.0316 µM, first compound 1 µM
[5] = second compound 0.0316 µM, first compound 3.16 µM
[6] = second compound 0.0316 µM, first compound 10 µM
[7] = second compound 0.1 µM, first compound 0.0316 µM
[8] = second compound 0.1 µM, first compound 0.1 µM
[9] = second compound 0.1 µM, first compound 0.316 µM
[10] = second compound 0.1 µM, first compound 1 µM
[11] = second compound 0.1 µM, first compound 3.16 µM
[12] = second compound 0.1 µM, first compound 10 µM
[13] = second compound 0.316 µM, first compound 0.0316 µM
[14] = second compound 0.316 µM, first compound 0.1 µM
[15] = second compound 0.316 µM, first compound 0.316 µM
[16] = second compound 0.316 µM, first compound 1 µM
[17] = second compound 0.316 µM, first compound 3.16 µM
[18] = second compound 0.316 µM, first compound 10 µM
[19] = second compound 1 µM, first compound 0.0316 µM
[20] = second compound 1 µM, first compound 0.1 µM
[21] = second compound 1 µM, first compound 0.316 µM
[22] = second compound 1 µM, first compound 1 µM
[23] = second compound 1 µM, first compound 3.16 µM
[24] = second compound 1 µM, first compound 10 µM
[25] = second compound 3.16 µM, first compound 0.0316 µM
[26] = second compound 3.16 µM, first compound 0.1 µM
[27] = second compound 3.16 µM, first compound 0.316 µM
[28] = second compound 3.16 µM, first compound 1 µM
[29] = second compound 3.16 µM, first compound 3.16 µM
[30] = second compound 3.16 µM, first compound 10 µM
[31] = second compound 10 µM, first compound 0.0316 µM
[32] = second compound 10 µM, first compound 0.1 µM
[33] = second compound 10 µM, first compound 0.316 µM
[34] = second compound 10 µM, first compound 1 µM
[35] = second compound 10 µM, first compound 3.16 µM
[36] = second compound 10 µM, first compound 10 µM
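Note: spheroids exposed to compounds for seven days before readout.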

C#Cc1c(F)ccc2cc(O)cc(-c3ncc4c(N5CC6CCC(C5)N6)nc(OCC56CCCN5CC(F)C6)nc4c3F)c12 (stereo unspecified) + Cc1cccc(N(C)C(=O)C2C(O)CCN2c2nc(C)cc(C(F)(F)F)c2C#N)c1
inactive: viability, T/C [1] 106% | viability, T/C [2] 105% | viability, T/C [3] 108% | viability, T/C [4] 101% | viability, T/C [5] 105% | viability, T/C [6] 103% | viability, T/C [7] 103% | viability, T/C [8] 103% | viability, T/C [9] 102% | viability, T/C [10] 96.7% | viability, T/C [11] 103% | viability, T/C [12] 103% | viability, T/C [13] 106% | viability, T/C [14] 103% | viability, T/C [15] 99.4% | viability, T/C [16] 97.4% | viability, T/C [17] 114% | viability, T/C [18] 110% | viability, T/C [19] 109% | viability, T/C [20] 99.7% | viability, T/C [21] 106% | viability, T/C [22] 96.8% | viability, T/C [23] 111% | viability, T/C [24] 113% | viability, T/C [25] 101% | viability, T/C [26] 92.3% | viability, T/C [27] 97.5% | viability, T/C [28] 98.3% | viability, T/C [29] 107% | viability, T/C [30] 112% | viability, T/C [31] 102% | viability, T/C [32] 107% | viability, T/C [33] 112% | viability, T/C [34] 94.3% | viability, T/C [35] 102% | viability, T/C [36] 100%
> 10 µM: IC50 (second compound 0.0316 µM) | IC50 (second compound 0.1 µM) | IC50 (second compound 0.316 µM) | IC50 (second compound 1 µM) | IC50 (second compound 3.16 µM) | IC50 (second compound 10 µM)

CC1COCCN1c1cc(C2(O)CC3CCC(C2)O3)c2cnn(-c3ccn[nH]3)c2n1 (stereo unspecified) + Cc1cccc(N(C)C(=O)C2C(O)CCN2c2nc(C)cc(C(F)(F)F)c2C#N)c1
0.0898 µM: IC50 (second compound 1 µM)
inactive: viability, T/C [1] 109% | viability, T/C [2] 46.7% | viability, T/C [3] 14.1% | viability, T/C [7] 91.8% | viability, T/C [8] 45.9% | viability, T/C [9] 12.6% | viability, T/C [13] 104% | viability, T/C [14] 43.5% | viability, T/C [15] 16.4% | viability, T/C [19] 95% | viability, T/C [20] 45.5% | viability, T/C [21] 13.2% | viability, T/C [25] 97.5% | viability, T/C [26] 45.8% | viability, T/C [27] 10.4% | viability, T/C [31] 83.4% | viability, T/C [32] 44% | viability, T/C [33] 15.1%
0.0938 µM: IC50 (second compound 0.0316 µM)
active: viability, T/C [4] 9.62% | viability, T/C [5] 6.47% | viability, T/C [6] 3.79% | viability, T/C [10] 9% | viability, T/C [11] 6.6% | viability, T/C [12] 4.11% | viability, T/C [16] 8.37% | viability, T/C [17] 6.11% | viability, T/C [18] 3.68% | viability, T/C [22] 9.4% | viability, T/C [23] 5.77% | viability, T/C [24] 3.51% | viability, T/C [28] 9.18% | viability, T/C [29] 6.79% | viability, T/C [30] 4.13% | viability, T/C [34] 9.77% | viability, T/C [35] 7.49% | viability, T/C [36] 2.55%
0.0834 µM: IC50 (second compound 10 µM)
0.0911 µM: IC50 (second compound 3.16 µM)
0.0901 µM: IC50 (second compound 0.1 µM)
0.0882 µM: IC50 (second compound 0.316 µM)

O=C(Nc1ccc(O)c(NS(=O)(=O)c2ccc(F)cc2)c1)c1ccc(-c2ccccc2)cc1 + Cc1cccc(N(C)C(=O)C2C(O)CCN2c2nc(C)cc(C(F)(F)F)c2C#N)c1
inactive: viability, T/C [1] 113% | viability, T/C [2] 107% | viability, T/C [3] 95% | viability, T/C [4] 85.3% | viability, T/C [5] 106% | viability, T/C [6] 66.2% | viability, T/C [7] 110% | viability, T/C [8] 122% | viability, T/C [9] 98.5% | viability, T/C [10] 92.8% | viability, T/C [11] 109% | viability, T/C [12] 58.4% | viability, T/C [13] 99% | viability, T/C [14] 104% | viability, T/C [15] 108% | viability, T/C [16] 111% | viability, T/C [17] 128% | viability, T/C [18] 60.8% | viability, T/C [19] 97.5% | viability, T/C [20] 123% | viability, T/C [21] 91.6% | viability, T/C [22] 105% | viability, T/C [23] 115% | viability, T/C [24] 59.7% | viability, T/C [25] 88.6% | viability, T/C [26] 124% | viability, T/C [27] 125% | viability, T/C [28] 105% | viability, T/C [29] 120% | viability, T/C [30] 52.7% | viability, T/C [31] 125% | viability, T/C [32] 110% | viability, T/C [33] 125% | viability, T/C [34] 106% | viability, T/C [35] 111% | viability, T/C [36] 34.1%
7.89 µM: IC50 (second compound 10 µM)
> 10 µM: IC50 (second compound 0.0316 µM) | IC50 (second compound 0.1 µM) | IC50 (second compound 0.316 µM) | IC50 (second compound 1 µM) | IC50 (second compound 3.16 µM)

Source: PubChem BioAssay AID1963838 (Molecular Pharmacology Branch, DTP, NCI, 2024)
